Where two headings read alike, the source gives them in different places.
How the values were obtained:
C57BL/KsJ db/db mice [1] = assay: Consumption of water and food by db/db mice; conditions: male db/db mice, control = 100
Excerpt: The C57BL/KsJ db/db mice used in the experiments reported here below were supplied by Jackson Lab (via Ch. River).

rat = conditions: oral administration; cited from earlier work
KKAy mouse = conditions: oral dose of 900 mg/kg/day; cited from earlier work
ob/ob mouse = assay: Reduction in hyperglycaemia in the ob/ob mouse (laboratory experiments); conditions: oral dose of 600 mg/kg/day
C57BL/KsJ db/db mice [2] = assay: Serum glucose levels in db/db mice after 4 days of subcutaneous treatment; conditions: male db/db mice, postabsorption conditions, 8 hours after last treatment, control = 100
diabetic patients = conditions: cited from earlier work
[3] = 100 mg/kg s.c. twice daily for 4 days
[4] = 25 mg/kg s.c. twice daily for 4 days

Compound | Food % (consumption, variation vs Control) (C57BL/KsJ db/db mice [1]; [3]) [%] | Water % (consumption, variation vs Control) (C57BL/KsJ db/db mice [1]; [3]) [%] | LD50 (rat) [mg/kg] | reduction in hyperglycaemia (KKAy mouse) [%] | reduction in hyperglycaemia (ob/ob mouse) [%] | Glucose % (variation vs Control) (C57BL/KsJ db/db mice [2]; [3]) [%] | reduction of hyperglycaemia (diabetic patients; in combination with sulphonylureas) [%] | reduction of hyperglycaemia (diabetic patients; monotherapy after the failure of diet and physical exercise) | Food % (consumption, variation vs Control) (C57BL/KsJ db/db mice [1]; [4]) [%] | Water % (consumption, variation vs Control) (C57BL/KsJ db/db mice [1]; [4]) [%] | Glucose % (variation vs Control) (C57BL/KsJ db/db mice [2]; [4])
CN(C)C(=N)N=C(N)N [Metformin] | 119 | 113 | 1000 | 50 | 22 | 104 | 25 | 20-30% |  |  | 
CC(C)=CCNC(=N)NCCCCN.CS(=O)(=O)O [ST2369, N-(4-aminobutyl)-N′-(γ,γ-dimethylallyl)guanidine methane sulphonate] |  |  |  |  |  |  |  |  | 63 | 47 | 
CC(C)=CCNC(=N)NCCCCCCN.CS(=O)(=O)O [ST2370, N-(γ,γ-dimethylallyl)-N′-(6-aminohexyl)guanidine methane sulphonate] |  |  |  |  |  |  |  |  | 81 | 47 | 69 □ %
